Laboratory results reported in patent US7732412B2, “Methods of treatment using novel LHRH antagonists having improved solubility properties” (Zentaris GmbH, priority 1999, dated 2010).
Numbered stars: 1 amine (or outer) side, 2 acyl side, 3 side chain; on linkers, the order of the positions; unused ones are H or OH. Square brackets hold non-standard residues; d marks the D form. Side chains are listed from the residue outwards. Peptide text beside a SMILES is read from it. * marks the point of attachment. NH(4-amidinophenyl) = N=C(N)c1ccc(N*)cc1; dPhe(4-Cl) = N[C@H](Cc1ccc(Cl)cc1)C(=O)O; d2Nal = N[C@H](Cc1ccc2ccccc2c1)C(=O)O; d(hCit) = NC(=O)NCCCC[C@@H](N)C(=O)O; Lys(iPr) = CC(C)NCCCC[C@H](N)C(=O)O; NMeY = CN[C@@H](Cc1ccc(O)cc1)C(=O)O; d3Pal = N[C@H](Cc1cccnc1)C(=O)O; Suc = O=C(CCC(=O)[*:2])[*:1]; Nle = CCCC[C@H](N)C(=O)O

What was measured:
[1] = tested on: patients who suffer from prostate carcinoma; test: first clinical trial in prostate carcinoma, 14 patients, testosterone and PSA; type: in vivo, human
Experimental: (§1) The following data are derived from two clinical studies comprising 14 and 13 patients, respectively, who suffer from prostate carcinoma and who were treated with the compound of the invention having the formula: Ac-D-Nal(2)^1-D-Cpa^2-D-Pal(3)^3-Ser^4-N-Me-Tyr^5-D-Hci^6-Nle^7-Arg^8-Pro^9-D-Ala^10-NH2 (Ozarelix)
In the first clinical trial, patients were given i.m. injections of 65 mg Ozarelix on day 1 followed by another 65 mg i.m. injection on day 2. Patients were re-treated after a waiting period of 4 weeks. This 4 week period of treatment is referred to as a treatment “cycle”. Accordingly, dosage of 130 mg of Ozarelix was provided to the patients in the first four week cycle of treatment (Cycle 1).
Six out of these 14 patients were subsequently administered 65 mg Ozarelix per i.m. injection on day 29 and day 30 each, whereas the other eight patients only received 65 mg Ozarelix on day 29 (Cycle 2). This schedule was repeated on day 57/58 accordingly (Cycle 3).
As for the administration days, testosterone levels were always determined before application of ozarelix to the patients. In addition, mean change of Prostate Specific Antigen (PSA) levels were monitored 4-weekly over a period of 12 weeks. The percent change of PSA shown is the mean value for all treated patients and refers to the normalized individual baseline PSA levels before first Ozarelix administration.

[2] = tested on: patients who suffer from prostate carcinoma; test: second clinical trial in prostate carcinoma, 13 patients, testosterone; type: in vivo, human
Experimental: as §1
In the second clinical trial patients were given a single im. injection of 130 mg Ozarelix on day 1. Patients were re-treated after a waiting period of 4 weeks, and this 4 week period is considered as a treatment “Cycle”. Accordingly, dosage of 130 mg of Ozarelix was again provided to the patients in the first four week cycle of treatment (Cycle 1).
Seven out of these 13 patients were subsequently administered 130 mg Ozarelix per i.m. injection on day 29, whereas the other six patients received 100 mg Ozarelix on day 29 (Cycle 2). This schedule was repeated on day 57 accordingly (Cycle 3).
As for the administration days, testosterone levels were always determined before application of Ozarelix to the patients.

human LHRH receptor [3] = target: T1, human LHRH receptor (Homo sapiens, UniProt P30968); test: functional assay for antagonistic activity, fos-Luc luciferase reporter gene, stimulation with 1 nM [D-Trp6] LHRH; type: cell-based; set-up: expressed in transfected cells; details: cells stimulated with 1 nM [D-Trp6] LHRH for 6 h; bracket = number of independent experiments
T1 sequence (P30968 1-328): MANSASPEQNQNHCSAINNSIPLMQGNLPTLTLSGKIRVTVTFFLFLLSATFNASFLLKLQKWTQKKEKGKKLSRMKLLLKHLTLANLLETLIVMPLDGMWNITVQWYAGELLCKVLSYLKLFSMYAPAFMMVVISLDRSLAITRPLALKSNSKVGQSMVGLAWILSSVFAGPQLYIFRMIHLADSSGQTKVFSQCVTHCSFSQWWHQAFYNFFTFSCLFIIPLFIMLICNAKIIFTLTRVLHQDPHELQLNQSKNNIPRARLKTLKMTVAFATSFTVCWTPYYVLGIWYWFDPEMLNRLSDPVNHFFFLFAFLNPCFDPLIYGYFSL
Experimental: The assay for the functional characterization of antagonistic analogs of LH-RH was carried out, with some modifications, as described in Beckers et al., “Characterization of gonadotropin-releasing hormone analogs based on a sensitive cellular luciferase reporter gene assay” (1997) Analyt. Biochem. 251, 17-23. The assay uses a reporter gene made by fusing the c-fos immediate-early gene promoter to a DNA sequence encoding luciferase (Luc). A recombinant cell line that expresses the human LH-RH. receptor is stably transfected with the fos-Luc reporter gene. Transcription of the fos-Luc fusion gene and synthesis of the Luc protein is induced in the cells in a dose-dependent manner by LH-RH and other LH-RH agonists that bind and signal through the human LH-RH receptor. Peptide LH-RH antagonists such as the compounds of the invention bind to cellular LH-RH receptors and inhibit this stimulation. The antagonistic potency (IC50) of peptide LH-RH antagonists as determined by the assay generally correlates well with the binding affinity (KD) of the LH-RH antagonists for LH-RH receptor as determined from ligand binding experiments.
Cells containing the fos-Luc reporter gene that express the human LH-RH receptor were cultured for 24 h in microtitre plates using DMEM with additives and 1% (v:v) FCS (10,000 cells per well). The cells were then stimulated with 1 nM [D-Trp^6] LHRH for 6 h. Peptide LH-RH antagonist compounds according to the invention were added before the stimulation, and the cells were lysed at the end for quantification of the cellular Luc activity. The calculation of the IC50 values from dose-effect curves was carried out by non-linear regression analysis using the Hill model (Programme EDX 2.0 from C. Grunwald, Arzneimittelwerk Dresden).
The quantification of the Luc activity was carried out in duplicate essentially as described (Promega Technical Bulletins #101/161) using the respective luciferase assay system (Promega E4030). Owing to addition of coenzyme A (CoA), an oxidation of luciferyl-CoA takes place with advantageous kinetics. After the removal of the culture medium from the microtitre plate, the cells were lysed by addition of 100 μl of lysis buffer (25 mM tris-phosphate pH 7.8, 2 mM dithiothreitol, 2 mM 1,2-diaminocyclohexane-N,N,N′,N′-tetraacetic acid (CDTA), 10% (v:v) glycerol, 1% (v:v) Triton X-100). After incubation at room temperature for 15 min, 10 μl of cell lysate were transferred into a white microtitre plate suitable for luminometric detection (Dynatech). The enzymatic reaction was initiated by addition of 50 μl of assay buffer (20 mM tricine pH 7.8, 1.07 mM (MgCO3)4Mg(OH)2, 2.67 mM MgSO4, 0.1 mM ethylene-diaminetetraacetic acid (EDTA), 33.3 mM dithiothreitol, 270 μM coenzyme A, 470 μM glow-worm (Photinus pyralis) luciferin, 530 μM rATPNa2). After one minute, the luminescence was determined for a total time of one second with a signal half-life of five minutes using the EG&G Berthold MicroLumat LB 96 P.

human LHRH receptor [4] = target: T1, human LHRH receptor; test: receptor binding assay, displacement of [125I]-cetrorelix on intact cells; set-up: expressed in transfected cells; host or cells: LTK cells (stably transfected), intact cells; details: LTK cells expressing human LHRH receptor, 1 h at 37° C.; bracket = number of independent experiments; read-out: KD (binding affinity)
From the text: The compounds according to formula I of the invention were investigated for their receptor binding. The assay method closely followed the process described in Beckers et al., “Selection and characterization of mammalian cell lines with stable overexpression of human pituitary receptors for gonadoliberin (GnRH)” (1995) Eur. J. Biochem., 231, 535-543. Cetrorelix obtained according to the synthesis disclosed above was iodinated with [^125I] (Amersham; specific activity 80.5 Bq/fmol) using the IodoGen reagent (Pierce). The reaction mixture was purified by reverse-phase high-performance liquid chromatography with exchanged phases, monoiodinated cetrorelix being obtained without unlabelled peptide. In each case, about 80% of the [^125I]-cetrorelix was capable of specific receptor association.
The receptor binding assay was carried out under physiological conditions as described (Beckers et al., 1995) using intact cells. Subconfluent cultures of stably transfected LTK cells, which express the human LHRH receptor, were separated off by incubation in NaCl/Pi (137 mM NaCl, 2.7 mM KCl, 8.1 mM Na2HPO4, […])/1 mM EDTA and collected by centrifugation. The cell pellet was resuspended in binding buffer (DMEM without H2CO3, with 4.5 g/l of glucose, 10 mM Hepes pH 7.5, 0.5% (mass/volume) BSA, 1 g/l bacitracin, 0.1 g/l SBTI, 0.1% (mass/volume) NaN3). For displacement assays, 0.25×10^6 cells/100 μl were incubated with approximately 225 pM of the [^125I]-cetrorelix (specific activity 5-10×10^5 dpm/pmol) and various concentrations of unlabelled compound according to the invention as competitor. The cell suspension in 100 μl of binding medium was layered in 400 μl assay tubes over 200 μl of 84% by volume silicone oil (Merck Type 550)/16% by volume paraffin oil. […] Cell pellet and supernatants were then analysed by counting the y radiation. The amount of non-specifically bound material was determined at a final concentration of 1 μM with inclusion of unlabelled cetrorelix and was typically ≦10% of the total bound material. […]

Compound: CCCC[C@H](NC(=O)[C@@H](CCCCNC(N)=O)NC(=O)[C@H](Cc1ccc(O)cc1)N(C)C(=O)[C@H](CO)NC(=O)[C@@H](Cc1cccnc1)NC(=O)[C@@H](Cc1ccc(Cl)cc1)NC(=O)[C@@H](Cc1ccc2ccccc2c1)NC(C)=O)C(=O)N[C@@H](CCCNC(=N)N)C(=O)N1CCC[C@H]1C(=O)N[C@H](C)C(N)=O [Example 1, Ac-D-Nal(2)^1-D-Cpa^2-D-Pal(3)^3-Ser^4-N-Me-Tyr^5-D-Hci^6-Nle^7-Arg^8-Pro^9-D-Ala^10-NH2] (Ac-[d2Nal][dPhe(4-Cl)][d3Pal]S[NMeY][d(hCit)][Nle]RP[dA]-NH2)
- PSA levels over the monitoring period ([1]; 12 weeks, first trial): significantly reduced
- Testosterone (mean) ([1]; Day 2, 65 mg i.m. on day 1 and 2, re-treated day 29(/30) and 57(/58), pre-dose day 1 4.4 ng/mL): 0.6 ng/mL
- Testosterone (mean) ([1]; Day 3, first trial, 65 mg i.m. on day 1 and 2): 0.3 ng/mL
- Testosterone (mean) ([1]; Day 8, first trial): 0.2 ng/mL
- Testosterone (mean) ([1]; Day 15, first trial): 0.1 ng/mL
- Testosterone (mean) ([1]; Day 22, first trial): 0.1 ng/mL
- Testosterone (mean) ([1]; Day 29, before application, first trial): 0.2 ng/mL
- PSA [% change] (mean, versus individual baseline) ([1]; Day 29, first trial): −77 % change
- Testosterone (mean) ([1]; Day 36, first trial): 0.1 ng/mL
- Testosterone (mean) ([1]; Day 43, first trial): 0.1 ng/mL
- Testosterone (mean) ([1]; Day 50, first trial): 0.1 ng/mL
- Testosterone (mean) ([1]; Day 57, before application, first trial): 0.1 ng/mL
- PSA [% change] (mean, versus individual baseline) ([1]; Day 57, first trial): −88 % change
- Testosterone (mean) ([1]; Day 64, first trial): 0.1 ng/mL
- Testosterone (mean) ([1]; Day 71, first trial): 0.1 ng/mL
- Testosterone (mean) ([1]; Day 78, first trial): 0.1 ng/mL
- PSA [% change] (mean, versus individual baseline) ([1]; Day 85, first trial): −89 % change
- Testosterone (mean) ([1]; Day 85, first trial): 0.3 ng/mL
- testosterone values of all patients ([1]; afterwards (after day 3), first trial): < 0.5 ng/mL
- treated patients hormonally castrated (testosterone <0.5 ng/mL) ([1]; day 2 (24 hours post-dose), first trial): 57%
- treated patients hormonally castrated (testosterone <0.5 ng/mL) ([1]; day 3 (48 hours post-dose), first trial): 79%
- Testosterone (mean) ([2]; Day 2, single 130 mg i.m. on day 1, re-treated day 29 and 57 (130 or 100 mg), pre-dose day 1 3.9 ng/mL): 0.4 ng/mL
- Testosterone (mean) ([2]; Day 3, second trial, 130 mg i.m. on day 1): 0.3 ng/mL
- Testosterone (mean) ([2]; Day 8, second trial): 0.1 ng/mL
- Testosterone (mean) ([2]; Day 15, second trial): 0.1 ng/mL
- Testosterone (mean) ([2]; Day 22, second trial): 0.1 ng/mL
- Testosterone (mean) ([2]; Day 29, before application, second trial): 0.2 ng/mL
- Testosterone (mean) ([2]; Day 36, second trial): 0.1 ng/mL
- Testosterone (mean) ([2]; Day 43, second trial): 0.1 ng/mL
- Testosterone (mean) ([2]; Day 50, second trial): 0.1 ng/mL
- Testosterone (mean) ([2]; Day 57, before application, second trial): 0.2 ng/mL
- Testosterone (mean) ([2]; Day 64, second trial): 0.1 ng/mL
- Testosterone (mean) ([2]; Day 71, second trial): 0.1 ng/mL
- Testosterone (mean) ([2]; Day 78, second trial): 0.1 ng/mL
- Testosterone (mean) ([2]; Day 85, second trial): 0.3 ng/mL
- testosterone values of all patients ([2]; afterwards (after day 3), second trial): < 0.5 ng/mL
- treated patients hormonally castrated (testosterone <0.5 ng/mL) ([2]; day 2 (24 hours post-dose), second trial): 69%
- treated patients hormonally castrated (testosterone <0.5 ng/mL) ([2]; day 3 (48 hours post-dose), second trial): 100%
- IC50 (human LHRH receptor [3]): 0.242 nM

Compound: CC(=O)N[C@H](Cc1ccc2ccccc2c1)C(=O)N[C@H](Cc1ccc(Cl)cc1)C(=O)N[C@H](Cc1cccnc1)C(=O)N[C@@H](CO)C(=O)N(C)[C@@H](Cc1ccc(O)cc1)C(=O)N[C@H](CCCCNC(=O)CCC(=O)Nc1ccc(C(=N)N)cc1)C(=O)N[C@@H](CC(C)C)C(=O)N[C@@H](CCCCNC(C)C)C(=O)N1CCC[C@H]1C(=O)N[C@H](C)C(N)=O [Example 2, Ac-D-Nal(2)^1-D-Cpa^2-D-Pal(3)^3-Ser^4-N-Me-Tyr^5-D-Lys(B)^6-Leu^7-Lys(iPr)^8-Pro^9-D-Ala^10-NH2] (Ac-[d2Nal][dPhe(4-Cl)][d3Pal]S[NMeY][dK]([Suc-NH(4-amidinophenyl)])L[Lys(iPr)]P[dA]-NH2)
- IC50 (human LHRH receptor [3]): 0.684 nM
- Kd (human LHRH receptor [4]): 0.181 nM
